This note sets out measurements from patent publication USRE30241E, “Esters of 3-(hydroxy or hydroxymethyl)-4-hydroxyphenyl aminomethyl ketones” (Sterling Drug Inc., priority 1970, dated 1980).

Where two headings read alike, the source gives them in different places. Some results are limits rather than exact numbers.

The test system of series [1] is carbachol- or histamine-induced bronchoconstriction. The series is described as follows: Bronchodilator Test Method I, anesthetized dog, intraduodenal activity. It counts as in vivo. The note with it: Canis lupus familiaris, read-out: Bronchodilation; for inhibition in vivo at 0.032 mg/kg: 32 mcg/kg (salt) intraduodenal; for inhibition in vivo at 0.128 mg/kg: 128 mcg/kg (salt) intraduodenal; for inhibition in vivo at 0.03 mg/kg: 30 mcg/kg (salt) intraduodenal; for inhibition in vivo at 0.12 mg/kg: 120 mcg/kg (salt) intraduodenal. Put shortly: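 Pentobarbital-anesthetized (30 mg/kg i.v.) open-chest dogs of 9-18 kg, artificially ventilated; airway pressure recorded via tracheal cannula transducer. Test solution injected intraduodenally; from 5 min, i.v. carbachol (4-6 μg/kg) or histamine diphosphate (35-45 μg/kg) challenges every 30-60 min gauged degree and duration of bronchodilation.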

Another series has as its system heart rate. Briefly: Cardiovascular studies: effect on the heart rate in the anesthetized dog. The class given is in vivo. How it is done: (§1) The effect of a rapid intravenous injection on the heart rate the heart rate was conducted in anesthetized dogs under normal respiration. A few open-chest dogs were also tested. Increase in heart rate was measured by using an electrocardiograph attached to the dog. Readings were taken every 0.5-1 minute for the first 10 minutes and every 2-5 minutes thereafter until recovery. In some cases, several doses and more than one compound were tested alternately in the same dog. The blood pressure effect was simultaneously recorded.

Series [2] deals with carbachol- or histamine-induced bronchoconstriction. Briefly: Bronchodilator Test Method I, anesthetized dog, intravenous activity. It counts as in vivo. The note with it: Canis lupus familiaris, read-out: Bronchodilatation; for inhibition in vivo at 0.008 mg/kg: 8 mcg/kg i.v.; for inhibition in vivo at 0.032 mg/kg: 32 mcg/kg i.v.; for inhibition in vivo at 0.128 mg/kg: 128 mcg/kg i.v.; for inhibition in vivo at 0.0056 mg/kg: 5.6 mcg/kg i.v.; for inhibition in vivo at 0.0112 mg/kg: 11.2 mcg/kg i.v.; for inhibition in vivo at 0.112 mg/kg: 112.0 mcg/kg i.v.; for inhibition in vivo at 0.0224 mg/kg: 22.4 mcg/kg i.v. Put shortly:
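Pentobarbital-anesthetized (30 mg/kg i.v.), open-chest, artificially ventilated dogs were given i.v. carbachol (4-6 µg/kg) or histamine diphosphate (35-45 µg/kg). Test compound was given i.v. mixed with, after, or 1-10 min before the constrictor.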

Another series deals with diastolic blood pressure. The series is described as follows: Effect on diastolic blood pressure in the anesthetized dog. The class given is in vivo. How it is done:
as §1

In series [3] the test system is guinea pig bronchioles constricted by carbachol. The series is described as follows: Bronchodilator Test Method II, in vitro perfused guinea pig lung. The note with it: for ED50: carbachol (Doryl) 1:5 million. How it is done: In this method bronchodilator activity in vitro was determined by testing the effect of graded doses of the test compounds on guinea pig bronchioles constricted by carbachol, using the technique reported by Sollman and von Oettingen, Proc. Soc, Exp. Biol. Med., 25,692 (1928) as modified by Tainter, Pedden, and James, J. Pharm. Exp. Ther., 51, 371 (1934) and by Luduena, von Euler, Tullar, and Lands, Arch. intern. Pharmacol., III, 392 (1957).

Series [4] can be described thus: Solubility and pH of salts. The note with it: water.

In the case of `COc1ccc(C(=O)Oc2ccc(C(O)CNC(C)(C)C)cc2COC(C)=O)cc1` (stereo not drawn) [Example 151, 3-(acetoxymethyl)-4-(p-anisoyloxy)-alpha-(tert-butylaminomethyl)benzyl alcohol], the inhibition in vivo at 0.032 mg/kg turned out to be 24% in series [1] (5 min, 5 min); 40% in series [1] (0.5 h, 30 min); 36% in series [1] (1 h, 60 min); 36% in series [1] (2 h, 120 min); 28% in series [1] (3 h, 180 min); 20% in series [1] (5 h, 300 min). Also, the inhibition in vivo at 0.032 mg/kg in series [2] (5 min, 5 min) was 54%; in series [2] (0.5 h, 30 min) it was 46%; in series [2] (1 h, 60 min) it was 41%; in series [2] (2 h, 120 min), 54%; in series [2] (3 h, 180 min), 21%; in series [2] (4 h, 240 min), 18%. Moreover, the inhibition in vivo at 0.128 mg/kg in series [1] (5 min, 5 min) is 54%; in series [1] (0.5 h, 30 min), 63%; in series [1] (1 h, 60 min), 66%; in series [1] (2 h, 120 min), 66%; in series [1] (3 h, 180 min) it was 66%; in series [1] (5 h, 300 min), 43%. Further, the inhibition in vivo at 0.128 mg/kg in series [2] (5 min, 5 min) stood at 85%; in series [2] (0.5 h, 30 min), 81%; in series [2] (1 h, 60 min), 81%; in series [2] (2 h, 120 min), 73%; in series [2] (3 h, 180 min), 69%; in series [2] (4 h, 240 min), 64%. For the same compound, the inhibition in vivo at 0.128 mg/kg in series [2] (4.5 h, 270 min) amounted to 52%. Besides, the figures for the “Mean Maximal Increase in the Heart Rate” value with heart rate (32 mcg/kg (salt) i.v.) and with heart rate (128 mcg/kg (salt) i.v.) were 18 Beats/Minute and 24 Beats/Minute, respectively. Also, the inhibition in vivo at 0.008 mg/kg in series [2] (5 min, 5 min) is 43%; in series [2] (0.5 h, 30 min) it was 33%; in series [2] (1 h, 60 min), 50%; in series [2] (2 h, 120 min), 43%; in series [2] (3 h, 180 min), 30%; in series [2] (4.5 h, 270 min) it was 20%. In addition, the “Mean Decrease in Diastolic Blood Pressure” value with diastolic blood pressure (32 meg/kg (salt) i.v.) and in the series on diastolic blood pressure (128 meg/kg (salt) i.v.) was 10% throughout. The ED50 in series [3] was 5.1 µg (base). In addition, in series [3] (dose 10 mcg (base)), the “Duration, Mean” value came out at 67.3 ± 33.7 min.
In the case of `CC(C)NCC(O)c1ccc(O)c(O)c1` (stereo not drawn) [Ref. Cpd. II, 3,4-Dihydroxy-alpha-(isopropylaminomethyl)benzyl alcohol, reference compound], the inhibition in vivo at 0.03 mg/kg in series [1] (10 min, 10 min) worked out at 9%; in series [1] (0.5 h, 30 min), 5%; in series [1] (1 h, 60 min), 0%. The inhibition in vivo at 0.12 mg/kg turned out to be 28% in series [1] (10 min, 10 min); 5% in series [1] (0.5 h, 30 min); 19% in series [1] (1 h, 60 min). Besides, the “Mean Maximal Increase in the Heart Rate” value is 26% in the series with heart rate (0.15 mcg/kg (salt) i.v.), 35% in the series with heart rate (0.3 mcg/kg (salt) i.v.) and 50% with heart rate (0.6 mcg/kg (salt) i.v.). Moreover, in series [2] (1 min, 0.3 mcg/kg i.v., 1-2 min), the inhibition in vivo at 0.0003 mg/kg stood at 23%. Moreover, the inhibition in vivo at 0.0006 mg/kg in series [2] (1 min, 0.6 mcg/kg i.v., 1-2 min) came out at 35%. In addition, the inhibition in vivo at 0.0012 mg/kg in series [2] (1 min, 1.2 mcg/kg i.v., 1-2 min) stood at 55%. Besides, the “Mean Decrease in Diastolic Blood Pressure” value with diastolic blood pressure (0.15 meg/kg (salt) i.v.) was determined as 12%; in the series with diastolic blood pressure (0.3 meg/kg (salt) i.v.) it was 32%; in the series on diastolic blood pressure (0.6 meg/kg (salt) i.v.), 40%. Further, the “Duration, Mean” value in series [3] (dose 0.75 mcg (base)) is listed as 5 min.
By solubility is commonly meant the concentration that dissolves in the medium under given conditions. As to `CC(C)(C)NCC(O)c1ccc(OC(=O)C(C)(C)C)c(OC(=O)C(C)(C)C)c1.Cl` (stereo not drawn) [Example 5, 3,4-bis(pivalyloxy)-alpha-(tert-butylaminomethyl)benzyl alcohol hydrochloride], in series [4], the solubility is at least 50 mg/mL. Besides, the inhibition in vivo at 0.0028 mg/kg in series [2] (5 min, 2.8 mcg/kg i.v., 5 min) was found to be 14%. Moreover, the inhibition in vivo at 0.0056 mg/kg in series [2] (5 min, 5 min) came out at 53%; in series [2] (0.5 h, 30 min), 27%; in series [2] (1 h, 60 min) it was 26%. The inhibition in vivo at 0.0112 mg/kg in series [2] (5 min, 5 min) came to 57%; in series [2] (0.5 h, 30 min), 30%; in series [2] (1 h, 60 min), 4%. The inhibition in vivo at 0.112 mg/kg was 100% in series [2] (5 min, 5 min); 92% in series [2] (0.5 h, 30 min); 59% in series [2] (1 h, 60 min); 13% in series [2] (2 h, 120 min). Moreover, the inhibition in vivo at 0.0224 mg/kg in series [2] (0.5 h, 30 min) was found to be 81%; in series [2] (1 h, 60 min), 62%; in series [2] (2 h, 120 min), 62%; in series [2] (3 h, 180 min), 15%; in series [2] (4 h, 240 min), 0%. Further, in series [3] (hydrochloride), the ED50 was 0.94 µg (base). Besides, in series [3] (dose 2 mcg (base)), the “Duration, Mean” value worked out at 18 ± 4.2 min.
